Measurements: US20120010179A1, “Methods of using a thiazole derivative” (priority 2006, published 2012)

Experiments:
[1] = system: patients with COPD; assay: Pulmonary function tests (trough and peak FEV1), tetomilast with Advair Diskus 250/50, parallel group study (Example 2); format: in vivo, human; parameters: Estimated Treatment Effect, change from baseline in trough FEV1 (tetomilast versus placebo) / Estimated Treatment Effect in Baseline Mean trough FEV1, Day 7 predose (tetomilast versus placebo) / Estimated Treatment Effect, change from baseline in peak FEV1 (tetomilast versus placebo): unit not given here
Experimental: Pulmonary function tests were conducted throughout the study to monitor the subjects' respiratory status. Flow volume curves were collected via spirometry. Combivent® (Boehringer Ingleheim Pharmaceuticals, Inc., Ridgefield Conn.), which was used for short-acting rescues as needed throughout the studies described below, was withheld for 6 hours prior to any spirometric testing. Spirometry testing was performed at screening, baseline (Day 0), and at specific times during the treatment period. Each subject could have up to 5 spirometric readings at any study time point. Spirometric readings were performed using equipment from the central provider, Quantum Research, Inc. (Louisville, Colo.). All spirometry readings were recorded and sent to Quantum Research, Inc. for analysis
For the spirometric readings, the best effort was reported as follows. The highest acceptable forced expiratory volume in one second (FEV1) value was selected as the “best” of the given test session. If two or more FEV1 values were tied as highest, the sum of FEV1 and forced vital capacity (FVC) for those efforts was used. If both conditions were equal between the two efforts, the values reported were taken from the effort that occurred first, chronologically, based on date and time of the effort.
This study was a multicenter, randomized, double-blind, placebo-controlled, parallel group, outpatient, phase 1B study of Advair Diskus® 250/50 (fluticasone propionate and salmeterol xinafoate, GlaxoSmithKline, Research Triangle Park, N.C.) administered concomitantly with oral placebo or 50 mg tetomilast (2×25 mg tablets) in patients with COPD. All patients underwent a minimum 28-day washout from short-acting inhaled corticosteroids, long-acting bronchodialators, and/or continuous oxygen therapy (>16 hours per day), and a minimum 7-day washout from beta2-agonists and/or oral theophylline. Patients were randomly assigned to one of the two treatment arms (oral tetomilast 50 mg or placebo) prior to dosing on Day 1, and were distributed 1:1 between the two groups according to a computer-generated randomization code provided by the Otsuka Maryland Research Institute (OMRI) Biostatistics Department. Randomization was performed using a central IVRS system and was centralized across study centers.
Subjects received 7 days of treatment with tetomilast 50 mg or placebo oral dose in treatment period 1. During treatment period 2, Days 8 through 35, concomitant inhaled Advair Diskus® 250/50 was added to the treatment regimen.
Subjects were instructed to take their oral study medication (tetomilast 50 mg or placebo) QD with 8 ounces of water immediately after breakfast for all study treatment days. Subjects assigned to the placebo group received two placebo tablets QD. Subjects assigned to the tetomilast group received 2×25 mg tetomilast tablets QD. On study Days 1-7, 14, 21, 28, and 35, subjects consumed their oral study medication (tetomilast 50 mg or placebo) at the clinic in the presence of the study staff.
The inhaled Advair Diskus® 250/50 was self-administered by subjects on all study days between Days 8 and 35, except for Days 14, 21, 28, and 35, when the medication was administered at the clinic in the presence of the study staff. Advair Diskus® 250/50 was administered twice daily (BID). The morning dose coincided with the timing of the oral dose (tetomilast 50 mg or placebo). The evening dose was taken 12 hours later. Dosing times were recorded in subject diaries.
Combivent® (Boehringer Ingleheim Pharmaceuticals, Inc., Ridgefield, Conn.) was provided by the sponsor for short-acting rescue use during the study. Combivent® was withheld for 6 hours prior to any PFTs. Combivent® was supplied as a metered-dose inhaler. Each actuation meters 21 μg of ipratropium bromide and 120 μg of albuterol sulfate from the valve and delivers […] of ipratropium bromide and 103 μg of albuterol sulfate (equivalent to 90 μg albuterol base) from the mouthpiece. […]

[2] = system: patients with COPD; assay: Pharmacodynamic and safety assessments (ECG, vital signs, serum potassium, adverse events, laboratory), Example 2; format: in vivo, human
Experimental: Twelve-lead electrocardiograms (ECGs) were conducted after the subject had been resting and supine for ≧3 minutes. In addition to screening and pre-treatment baseline (Day 0) measurements, ECGs were also recorded at specific times during the treatment period. All 12-lead ECG monitors used for this study were calibrated and standardized. The ventricular rate, PR interval (the time elapsing between the beginning of the P wave and the beginning of the QRS interval in an electrocardiogram, corresponding to the electrical activity through the atria), QRS interval (the movement of electrical impulses through the ventricles), QT/QTc interval (the QT interval measures the time between the start of the Q wave and the end of the T wave in the heart's electrical cycle; QTc is a corrected QT interval, as determined by Fridericia's formula [QTcF] and Bazett's formula [QTcB]), and the overall ECG interpretation (normal or abnormal) were documented. Measurements were recorded prior to collection of any blood samples, where applicable. At least three original copies of each ECG (one each for the site, for the sponsor, and for the central ECG provider) were made. […]
Vital signs (heart rate and systolic blood pressure) were measured after the subject had been sitting for ≧3 minutes. […] Measurements were recorded prior to the collection of any blood samples, where applicable. […]

[3] = system: lipopolysaccharide (LPS)-induced cytokine production (TNF-α, IL-1β, IL-6); conditions: tetomilast pretreatment; human whole blood from normal volunteers in vitro; cited from earlier work
[4] = Baseline Day 1 predose, Day 7, before Advair Diskus
[5] = Baseline Day 1 predose, Day 14, both with Advair Diskus 250/50 BID
[6] = Baseline Day 1 predose, Day 21, both with Advair Diskus 250/50 BID
[7] = Baseline Day 1 predose, Day 28, both with Advair Diskus 250/50 BID
[8] = Baseline Day 1 predose, Day 35, both with Advair Diskus 250/50 BID

CCOc1ccc(-c2nc(-c3cccc(C(=O)O)n3)cs2)cc1OCC [Tetomilast, 2-(3,4-diethoxyphenyl)-4-(2-carboxy-6-pyridyl)thiazole]
effect on inhaled Advair Diskus 250/50 response (FEV1), exploratory repeated measures analysis ([1]; Advair Diskus 250/50 with tetomilast versus Advair Diskus 250/50 alone, days 8 through 35): possible potentiation of the effect of inhaled fluticasone propionate plus salmeterol | Estimated Treatment Effect, change from baseline in peak FEV1 (tetomilast versus placebo) ([1]; Baseline Day 1 predose, Day 1, before Advair Diskus): 0.08 | Estimated Treatment Effect, change from baseline in trough FEV1 (tetomilast versus placebo) ([1]; Baseline Day 1 predose, Day 2, before Advair Diskus): 0.11 | Estimated Treatment Effect, change from baseline in trough FEV1 (tetomilast versus placebo) ([1]; Baseline Day 1 predose, Day 3, before Advair Diskus): 0.07 | Estimated Treatment Effect, change from baseline in trough FEV1 (tetomilast versus placebo) ([1]; Baseline Day 1 predose, Day 4, before Advair Diskus): 0.12 | Estimated Treatment Effect, change from baseline in trough FEV1 (tetomilast versus placebo) ([1]; Baseline Day 1 predose, Day 5, before Advair Diskus): 0.13 | Estimated Treatment Effect, change from baseline in trough FEV1 (tetomilast versus placebo) ([1]; Baseline Day 1 predose, Day 6, before Advair Diskus): 0.11 | Estimated Treatment Effect, change from baseline in peak FEV1 (tetomilast versus placebo) [1, 4]: 0.23 | Estimated Treatment Effect, change from baseline in trough FEV1 (tetomilast versus placebo) [1, 4]: 0.13 | Estimated Treatment Effect, change from baseline in peak FEV1 (tetomilast versus placebo) [1, 5]: 0.21 | Estimated Treatment Effect, change from baseline in trough FEV1 (tetomilast versus placebo) [1, 5]: 0.16 | Estimated Treatment Effect, change from baseline in peak FEV1 (tetomilast versus placebo) [1, 6]: 0.30 | Estimated Treatment Effect, change from baseline in trough FEV1 (tetomilast versus placebo) [1, 6]: 0.18 | Estimated Treatment Effect, change from baseline in peak FEV1 (tetomilast versus placebo) [1, 7]: 0.28 | Estimated Treatment Effect, change from baseline in trough FEV1 (tetomilast versus placebo) [1, 7]: 0.21 | Estimated Treatment Effect, change from baseline in peak FEV1 (tetomilast versus placebo) [1, 8]: 0.21 | Estimated Treatment Effect, change from baseline in trough FEV1 (tetomilast versus placebo) [1, 8]: 0.15 | Estimated Treatment Effect, change from baseline in trough FEV1 (tetomilast versus placebo) ([1]; Baseline Day 7 predose, Day 14, both with Advair Diskus 250/50 BID): 0.02 | Estimated Treatment Effect, change from baseline in trough FEV1 (tetomilast versus placebo) ([1]; Baseline Day 7 predose, Day 21, both with Advair Diskus 250/50 BID): 0.05 | Estimated Treatment Effect, change from baseline in trough FEV1 (tetomilast versus placebo) ([1]; Baseline Day 7 predose, Day 28, both with Advair Diskus 250/50 BID): 0.06 | Estimated Treatment Effect, change from baseline in trough FEV1 (tetomilast versus placebo) ([1]; Baseline Day 7 predose, Day 35, both with Advair Diskus 250/50 BID): 0.02 | Estimated Treatment Effect in Baseline Mean trough FEV1, Day 7 predose (tetomilast versus placebo) ([1]; Day 7 predose, before Advair Diskus): 0.38 | Trough FEV1 compared with placebo ([1]; day-1 baseline, all time points through day-7 except day-3, and day-14 through day-35 (with Advair Diskus 250/50)): statistically significantly improved | peak and average FEV1 improvements compared with placebo ([1]; days 7, 21 and 28, approached statistical significance at day 14 and day 35): statistically significant | changes in heart rate, systolic blood pressure, serum potassium, or QT interval versus placebo ([2]; oral tetomilast in combination with Advair Diskus 250/50): No clinically meaningful changes | differences in adverse events, serum chemistry, hematology, or urinalysis versus placebo ([2]; oral tetomilast with inhaled Advair Diskus 250/50): no clinically meaningful differences | LPS-induced cytokine production (TNF-α, IL-1β, IL-6) [3]: dose-related suppression
